Data on 1 compound can be found in ChEMBL document CHEMBL1138663, “Synthesis and aromatase inhibitory activity of novel pyridine-containing isoflavones” (J Med Chem, 2004).

The test addresses T1, Aromatase (Homo sapiens, UniProt P11511).
T1 sequence (P11511 whole entry): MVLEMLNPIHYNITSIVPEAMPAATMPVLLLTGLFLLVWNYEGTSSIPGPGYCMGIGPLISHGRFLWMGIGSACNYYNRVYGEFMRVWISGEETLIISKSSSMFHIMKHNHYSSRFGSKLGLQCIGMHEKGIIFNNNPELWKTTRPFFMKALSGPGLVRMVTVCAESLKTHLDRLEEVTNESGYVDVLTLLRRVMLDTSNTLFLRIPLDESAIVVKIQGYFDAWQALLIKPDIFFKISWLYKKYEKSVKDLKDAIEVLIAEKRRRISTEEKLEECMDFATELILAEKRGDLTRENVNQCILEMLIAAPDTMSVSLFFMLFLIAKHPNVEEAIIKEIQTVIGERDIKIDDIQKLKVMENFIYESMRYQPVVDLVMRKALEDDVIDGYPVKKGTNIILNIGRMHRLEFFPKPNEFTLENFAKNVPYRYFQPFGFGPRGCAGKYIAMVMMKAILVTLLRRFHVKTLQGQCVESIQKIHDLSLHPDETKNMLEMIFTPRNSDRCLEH

Turning to `O=c1c(-c2ccc(O)cc2)coc2cc(O)cc(O)c12` [GENISTEIN], the affinity corresponds to a Ki of 123 µM.
